For one series, the target named is T1, αγ1 ADH (Class I) (Homo sapiens, UniProt P00326+P07327).
T1 construct: gamma1 allele (ADH1C*1, Arg271 and Ile349 in mature count)
Put plainly: Kinetics of enzymatic reduction of methoxynaphthaldehydes by αγ1 ADH. The conditions noted are these: rate relative to ethanol oxidation at pH 10.0. The class given is biochemical.

The next series addresses T2, αβ1 ADH (Class I) (Homo sapiens, UniProt P00325+P07327).
T2 construct: beta1 allele (ADH1B*1, Arg47 and Arg369 in mature count)
Put plainly: Kinetics of enzymatic reduction of methoxynaphthaldehydes by αβ1 ADH. The class given is biochemical. Particulars: rate relative to ethanol oxidation at pH 10.0. As for the experimental part:
(§1) Standard assays for ethanol oxidation activity (Dalziel, 1957, Acta Chem Scand 11:1706-23) were carried out on a Cary 219 spectrophotometer interfaced with an Apple IIe microcomputer, using software provided by Varian Associates. The reaction mixture contained 2.5 mM NAD^+ in 0.1M glycine-NaOH buffer. pH 10.0, and 33 mM or 0.2M ethanol for Class I and Class II ADH, respectively.
(§2) Aldehyde reduction was monitored by following the decrease of absorption at 340 nm in 40 mM Mes buffer, pH 7.1. in the presence of saturating NADH, 50 μM for Class I and 100 μM for Class II. […] Initial reaction rates were measured and kinetic parameters determined by conventional procedures as described by Segel, 1975, Enzyme Kinetics, pp. 591-597, Wiley, N.Y. […]
(§3) The linear increase of fluorescence was then recorded for 1-10 minutes, until 0.03-1 μM of substrate was consumed. […] The added product fluorescence intensity was then measured Fluorescence measurements were optimized for samples with low activity (<1 nM/minute). […] Rates measured in the presence of the 0.2 mM ADH inhibitors. […]
Additionally the reaction rates for these isozymes were compared to those measured by the standard assay for ethanol oxidation (see part 7 above) at pH 10.0 the optimum for oxidation of ethanol by ADH. […]

The next series deals with T3, γ1 γ1 ADH (Class I) (Homo sapiens, UniProt P00326).
T3 construct: gamma1 allele (ADH1C*1, Arg271 and Ile349 in mature count)
T3 sequence (P00326 2-375): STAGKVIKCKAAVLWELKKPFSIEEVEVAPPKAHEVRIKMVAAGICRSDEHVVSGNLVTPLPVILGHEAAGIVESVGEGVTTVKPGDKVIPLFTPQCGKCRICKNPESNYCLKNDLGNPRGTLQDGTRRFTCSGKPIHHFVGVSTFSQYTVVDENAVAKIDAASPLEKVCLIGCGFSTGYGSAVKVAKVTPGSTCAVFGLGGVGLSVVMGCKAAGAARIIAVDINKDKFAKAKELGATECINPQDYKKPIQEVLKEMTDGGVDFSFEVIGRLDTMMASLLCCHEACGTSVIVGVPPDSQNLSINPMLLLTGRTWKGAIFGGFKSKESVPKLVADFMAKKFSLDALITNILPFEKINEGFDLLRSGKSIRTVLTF
The experiment in a line: Kinetics of enzymatic reduction of methoxynaphthaldehydes by γ1γ1 ADH. The conditions noted are these: rate relative to ethanol oxidation at pH 10.0. The class given is biochemical.

Series [1] is described as follows: Spectral parameters for absorption and fluorescence of ADH substrates and products. The class given is physicochemical. Particulars: for total decrease of molar absorptivity (aldehyde/NADH system): 340 nm, 40 mM Mes buffer, pH 7.1, with NADH. As for the experimental part:
The spectral parameters for 4-methoxy-1-naphthaldehyde (IA), 6-methoxy-2-naphthaldehyde (IIA) and their reduction products (IB and IIB, respectively) are shown in Table I.
Ultraviolet absorption spectra were measured on a Cary 219 or Hewlett-Packard 8451 spectrophotometer. Fluorescence measurements were made in a Perkin Elmer MPF3 spectrofluorometer, equipped with an Osram XBO 150 Watt Xenon lamp, an R446 photomultiplier, and thermostatted cell holder through which water was passed from a Poly-Temp circulator with the following spectrometer settings: excitation wavelength 316 nm. bandwidth 8 nm for both substrate IA and IIA; emission wavelength. 370 nm for substrate IA and 360 nm for substrate IIA, emission bandwidth 24 nm. Changes in fluorescence as a result of oxidation or reduction of the substrate was then measured in the ratio mode. Generally, for fluorometric reactions (see part 8 below). a sensitivity setting of 3 was used with compensation of fluorescence background by the zero suppression control of the instrument.
(§4) Aldehyde reduction was monitored by following the decrease of absorption at 340 nm in 40 mM Mes buffer, pH 7.1. in the presence of saturating NADH, 50 μM for Class I and 100 μM for Class II. […] Initial reaction rates were measured and kinetic parameters determined by conventional procedures as described by Segel, 1975, Enzyme Kinetics, pp. 591-597, Wiley, N.Y.

The next series concerns human ADH isozymes. Put plainly: Kinetics of enzymatic reduction of methoxynaphthaldehydes by ADH isozymes (general). The class given is biochemical. As for the experimental part:
as §4
All reaction mixtures (3 ml total volume) were prepared directly in 1 cm pathlength, 4 ml fluorometric cuvettes by adding 150 μl of the 300 μM substrate solution (e.g substrate IA or IIA) 100 μl of the 1 mM NADH solution (prepared as in part 5 above) and 2.69 ml of assay buffer (0.1M phosphate, pH 7.6). […]
as §3
The rates of aldehyde reduction, determined as initial velocities (V) and expressed in units of nM/minute, were calculated according to: [formula] where the quantity in parentheses is the slope of the linear fluorescence increase calculated from the quantities Ft and FO, the fluorescence at time t and at the beginning of the reaction, respectively. […]

Series [2] concerns β1 β1 ADH (Class I). Put plainly: Kinetics of enzymatic reduction of methoxynaphthaldehydes by β1β1 ADH. In kind it is biochemical, human. Particulars: pH 7.0, 50 μM NADH; spectrophotometric.
For a further series, the target named is T4, β1 γ1 ADH (Class I) (Homo sapiens, UniProt P00325+P00326).
T4 construct: beta1 (ADH1B*1) and gamma1 (ADH1C*1) alleles
T4 sequence (P00325 whole entry): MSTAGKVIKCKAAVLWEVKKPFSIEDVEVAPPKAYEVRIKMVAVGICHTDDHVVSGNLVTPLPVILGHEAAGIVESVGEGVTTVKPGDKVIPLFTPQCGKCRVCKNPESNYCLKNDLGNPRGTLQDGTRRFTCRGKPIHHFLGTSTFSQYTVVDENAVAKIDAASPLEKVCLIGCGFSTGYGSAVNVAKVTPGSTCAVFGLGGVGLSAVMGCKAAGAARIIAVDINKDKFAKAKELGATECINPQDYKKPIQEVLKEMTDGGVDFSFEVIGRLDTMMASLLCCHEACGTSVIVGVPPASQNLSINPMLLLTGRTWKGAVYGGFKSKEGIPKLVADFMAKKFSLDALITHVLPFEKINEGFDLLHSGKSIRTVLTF
T4 sequence (P00326 whole entry): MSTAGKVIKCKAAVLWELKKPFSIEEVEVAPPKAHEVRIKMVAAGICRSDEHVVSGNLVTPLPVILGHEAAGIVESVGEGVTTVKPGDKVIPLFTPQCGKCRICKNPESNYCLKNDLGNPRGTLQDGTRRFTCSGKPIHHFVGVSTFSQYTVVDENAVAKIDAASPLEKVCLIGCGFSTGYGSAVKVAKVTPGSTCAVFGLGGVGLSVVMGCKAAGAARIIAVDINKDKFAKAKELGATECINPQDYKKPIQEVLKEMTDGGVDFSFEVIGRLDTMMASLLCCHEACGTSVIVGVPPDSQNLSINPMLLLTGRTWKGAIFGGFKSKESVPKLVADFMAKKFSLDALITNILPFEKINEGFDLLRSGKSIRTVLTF
The experiment in a line: Kinetics of enzymatic reduction of methoxynaphthaldehydes by β1γ1 ADH. Particulars: rate relative to ethanol oxidation at pH 10.0. In kind it is biochemical.

The subject of a further series is Horse ADH. The experiment in a line: Kinetics of enzymatic reduction of methoxynaphthaldehydes by horse ADH. In kind it is biochemical. The conditions noted are these: for Km / kcat: pH 7.0, 50 μM NADH, spectrophotometric, >90% EE isozyme; for v/v (EtOH): rate relative to ethanol oxidation at pH 10.0.
Description: Crystalline horse ADH was purchased from Boehringer-Mannheim (Indianapolis,Ind.). NAD^+ and NADH, both grade III, were obtained as preweighed samples from Sigma Chemical Co. (St. Louis, Mo.); isobutyramide was from Aldrich., ethanol (100%) was from U.S. Industrial Chemicals Co. (New York, N.Y.); Mes acid (2-(N-morpholino)ethanesulfonic acid) was recrystallized from water. All other reagents were of analytical grade. Deionized, glass-distilled water was used throughout.
as §1, §2
(§5) Additionally the reaction rates for these isozymes were compared to those measured by the standard assay for ethanol oxidation (see part 7 above) at pH 10.0 the optimum for oxidation of ethanol by ADH. The rate of IA reduction for all Class I isozymes except the β1 β1 form is 1.5- to 4-fold faster than that of ethanol oxidation as measured by the conventional ethanol oxidation assay. […] Table III illustrates that IIA is an excellent substrate for Class II (.eta.) ADH, with a rate of IIA reduction at least 8-fold faster than that of ethanol oxidation.

Series [3] relates to β1 β1 ADH (Class I). The experiment in a line: Kinetics of enzymatic reduction of methoxynaphthaldehydes by β1β1 ADH. The class given is biochemical, human. The conditions noted are these: for Km / kcat: Table IV; for v/v (EtOH): rate relative to ethanol oxidation at pH 10.0. As for the experimental part:
as §1, §4
All reaction mixtures (3 ml total volume) were prepared directly in 1 cm pathlength, 4 ml fluorometric cuvettes by adding 150 μl of the 300 μM substrate solution (e.g substrate IA or IIA) 100 μl of the 1 mM NADH solution (prepared as in part 5 above) and 2.69 ml of assay buffer (0.1M phosphate, pH 7.6). After thermal equilibration (25° C.) for 5 minutes, 60 μl of isozyme sample (either serum or purified ADH isozymes) was added to the cuvette.
The linear increase of fluorescence was then recorded for 1-10 minutes, until 0.03-1 μM of substrate was consumed. Larger substrate consumption was not found to be desirable (described in subpart (c) below). After this period the instrument sensitivity setting was reduced 10-30 fold, the signal compensated once again by zero suppression (see part 6 above), and 60 μl of 200-400 μM product (e.g., product IB or IIB) was added to provide an internal standard. The added product fluorescence intensity was then measured Fluorescence measurements were optimized for samples with low activity (<1 nM/minute). For samples with higher activity, repeat measurements were made with the serum volume reduced from 60 μl to 10 μl. Rates measured in the presence of the 0.2 mM ADH inhibitors. 4-MeP or 4-PeP, were made by adding 50 μl of 12 mM inhibitor to the cuvette prior to the assay buffer, and the reaction was carried out as above.
The rates of aldehyde reduction, determined as initial velocities (V) and expressed in units of nM/minute, were calculated according to: [formula] where the quantity in parentheses is the slope of the linear fluorescence increase calculated from the quantities Ft and FO, the fluorescence at time t and at the beginning of the reaction, respectively. Cst is the concentration of the product used as a standard added to the cuvette after the initial rate had been measured and Fst is the fluorescence intensity of the added product
as §5

T2 sequence (P07327 2-375): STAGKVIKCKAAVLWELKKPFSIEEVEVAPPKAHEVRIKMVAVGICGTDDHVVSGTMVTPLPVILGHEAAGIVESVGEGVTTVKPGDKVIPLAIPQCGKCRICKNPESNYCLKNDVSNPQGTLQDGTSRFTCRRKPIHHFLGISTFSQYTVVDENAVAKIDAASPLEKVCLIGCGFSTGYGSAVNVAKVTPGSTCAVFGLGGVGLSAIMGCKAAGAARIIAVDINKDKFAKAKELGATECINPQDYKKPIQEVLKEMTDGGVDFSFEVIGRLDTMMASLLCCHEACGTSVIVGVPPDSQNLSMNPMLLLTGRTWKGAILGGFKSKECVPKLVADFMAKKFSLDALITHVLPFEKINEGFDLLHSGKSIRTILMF
T2 sequence (P00325 2-375): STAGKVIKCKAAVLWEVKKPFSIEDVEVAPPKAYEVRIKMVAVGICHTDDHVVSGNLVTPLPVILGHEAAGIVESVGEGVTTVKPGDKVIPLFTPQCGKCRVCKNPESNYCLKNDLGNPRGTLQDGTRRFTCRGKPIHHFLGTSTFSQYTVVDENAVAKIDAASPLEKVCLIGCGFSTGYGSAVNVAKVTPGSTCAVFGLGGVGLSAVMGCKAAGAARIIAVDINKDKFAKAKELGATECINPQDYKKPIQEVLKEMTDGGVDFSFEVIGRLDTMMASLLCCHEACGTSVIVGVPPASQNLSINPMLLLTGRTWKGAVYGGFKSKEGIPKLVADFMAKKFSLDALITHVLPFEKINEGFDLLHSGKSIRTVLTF
T1 sequence (P07327 2-375): as the sequence (P07327 2-375) above
T1 sequence (P00326 2-375): as the sequence (P00326 2-375) above

For the compound `COc1ccc(C=O)c2ccccc12` [IA, 4-methoxy-1-naphthaldehyde], the “v/v (EtOH)” value on αγ1 ADH (Class I) stood at 2.71; on αβ1 ADH (Class I), 1.59; on γ1 γ1 ADH (Class I), 1.54; on β1 γ1 ADH (Class I), 0.93; with Horse ADH it was 0.04; in the series on β1 β1 ADH (Class I) [3], 0.08. Also, the “total decrease of molar absorptivity (aldehyde/NADH system)” value in series [1] turned out to be 18000 M⁻¹ cm⁻¹. Besides, in [1] (Mes buffer (45 mM), pH 7.0), the “Absorption εmax” value is given as 13,100 M^-1 cm^-1. For the same compound, the “Absorption λmax” value in [1] (Mes buffer (45 mM), pH 7.0) came out at 332 nm. For the same compound, in series [1] (Mes buffer (45 mM), pH 7.0), the “Fluorescence .phi. (quantum yield)” value amounted to 0.003. For the same compound, the “Fluorescence λmax” value in series [1] (Mes buffer (45 mM), pH 7.0) came out at 420 nm. In addition, in the series on human ADH isozymes, the “Km of most, in particular γ-containing Class I isozymes” value is reported as “close to or below 1”. In addition, the Km stood at 4 µM in the series with β1 β1 ADH (Class I) [2], 33 µM with Horse ADH and 4 µM in the series on β1 β1 ADH (Class I) [3]. The kcat in the series with β1 β1 ADH (Class I) [2] is 0.033 s⁻¹; with Horse ADH, 0.433 s⁻¹; in the series with β1 β1 ADH (Class I) [3], 0.033 s⁻¹. The “rate of reduction of IA versus IIA by Class I ββ isozymes” value in the series with β1 β1 ADH (Class I) [3] (words) was “much faster”.

For the compound `COc1ccc2cc(C=O)ccc2c1` [IIA, 6-methoxy-2-naphthaldehyde], the “v/v (EtOH)” value is reported as 1.06 on αγ1 ADH (Class I); 0.74 on αβ1 ADH (Class I); 0.45 on γ1 γ1 ADH (Class I); 0.53 at β1 γ1 ADH (Class I); 2.5 with Horse ADH; 4.85 in the series on β1 β1 ADH (Class I) [3]. Moreover, the “total decrease of molar absorptivity (aldehyde/NADH system)” value in series [1] was 12700 M⁻¹ cm⁻¹. Moreover, the “Absorption εmax” value in [1] (Mes buffer (45 mM), pH 7.0) is reported as 14,400 M^-1 cm^-1. In addition, in series [1] (Mes buffer (45 mM), pH 7.0), the “Absorption λmax” value was 315 nm. Besides, the “Fluorescence .phi. (quantum yield)” value worked out at 0.22 in [1] (Mes buffer (45 mM), pH 7.0) and 0.03 in series [1] (in methanol). Also, the “Fluorescence λmax” value in series [1] (Mes buffer (45 mM), pH 7.0) was determined as 450 nm; in [1] (in methanol), 435 nm. Also, the “Km of most, in particular γ-containing Class I isozymes” value with human ADH isozymes is reported as “close to or below 1”. Further, the Km in the series with β1 β1 ADH (Class I) [2] was 5.4 µM; in the series with Horse ADH, 2.2 µM; in the series with β1 β1 ADH (Class I) [3], 5.4 µM. The kcat with β1 β1 ADH (Class I) [2] was 1.28 s⁻¹; in the series on Horse ADH, 35.83 s⁻¹; with β1 β1 ADH (Class I) [3], 1.28 s⁻¹.

One may read the Km as the substrate concentration at which the rate is half of its maximum. As usually defined, the kcat is the maximal rate divided by the concentration of active sites.

These data come from patent US5162203A, “Methods of measuring isozymes and isozyme classes of alcohol dehydrogenase” (President and Fellows of Harvard College, priority 1989, dated 1992).
